In brackets after ≈: the same amount, converted by molar mass.
Assays:
[1] = system: Candida albicans; assay: Compound was screened in vitro for antifungal and immunosuppressive activity against Candida albicans (CA 38247); assay type: functional
[2] = system: Candida tropicalis; assay: In vitro antifungal activity against Candida tropicalis (CT 750); assay type: functional
[3] = system: Candida albicans; assay: Compound was screened in vitro for antifungal activity against Candida albicans (CA 442); assay type: functional
[4] = system: Candida albicans; assay: In vitro for antifungal activity against Candida albicans (CA 579a); assay type: functional
[5] = system: Candida albicans; assay: In vitro antifungal activity against Candida albicans (CA 10231); assay type: functional
[6] = system: Candida albicans; assay: Compound was screened in vitro for antifungal activity against Candida albicans (CA 62376); assay type: functional
[7] = system: Pichia kudriavzevii; assay: In vitro antifungal activity against Candida krusei (CK 28838); assay type: functional
[8] = species on record: Homo sapiens; assay: Inhibitory activity against human concanavalin-A proliferation assay; assay type: functional
[9] = system: Candida albicans; assay: Compound was screened in vitro for antifungal activity against Candida albicans (CA 38247); weak; assay type: functional, organism-based
[10] = system: Candida albicans; assay: Compound was screened in vitro for antifungal activity against Candida albicans (CA 62376); weak; assay type: functional, organism-based
[11] = system: Nakaseomyces glabratus; assay: In vitro antifungal activity against Torulopsis glabrata (TG 15545); assay type: functional
[12] = system: Candida albicans; assay: Compound was screened in vitro for antifungal activity against Candida albicans (CA 442); weak; assay type: functional, organism-based
[13] = system: Aspergillus niger; assay: Compound was screened in vitro for antifungal activity at a minimum inhibitory concentration (~100 ug/mL) against Aspergillus niger; not affected; assay type: functional
[14] = system: Candida albicans; assay: Compound was screened in vitro for antifungal activity at a minimum inhibitory concentration (~100 ug/mL) against […] (CA 34140); not affected; assay type: functional
[15] = biological target: Peptidyl-prolyl cis-trans isomerase FKBP1A (Homo sapiens, UniProt P62942); assay: The compound was tested for binding affinity to FK506 binding protein 12 using Rapamycin as control, with an ascomycin conjugate of alkaline phosphatase in a competition binding assay
[16] = system: Candida albicans; assay: In vitro antifungal activity against Candida albicans (CA 38247); Weak; assay type: functional, organism-based
[17] = system: Candida albicans; assay: In vitro antifungal activity against Candida albicans (CA 62376); Weak; assay type: functional, organism-based
[18] = system: Candida albicans; assay: In vitro antifungal activity against Candida albicans (CA 442); Weak; assay type: functional, organism-based
[19] = system: Aspergillus niger; assay: In vitro antifungal activity at a minimum inhibitory concentration (~100 ug/mL) against Aspergillus niger; Not affected; assay type: functional; settings: Aspergillus niger; read-out: MIC
[20] = system: Candida albicans; assay: In vitro antifungal activity against […] (CA 34140); Not affected.; assay type: functional
[21] = system: Candida albicans; assay: Compound was screened in vitro for antifungal activity against Candida albicans (CA 38247); assay type: functional
[22] = system: Aspergillus niger; assay: Compound was screened in vitro for antifungal activity at a minimum inhibitory concentration (~100 ug/mL) against Aspergillus nigerl; Not effected; assay type: functional
[23] = system: Candida tropicalis; assay: Compound was screened in vitro for antifungal activity against Candida tropicalis (CT 750)
[24] = system: Candida albicans; assay: Compound was screened in vitro for antifungal activity at a minimum inhibitory concentration (~100 ug/mL) against […] ([…]); Not affected; assay type: functional

Peptidyl-prolyl cis-trans isomerase FKBP1A, sequence (P62942 whole entry): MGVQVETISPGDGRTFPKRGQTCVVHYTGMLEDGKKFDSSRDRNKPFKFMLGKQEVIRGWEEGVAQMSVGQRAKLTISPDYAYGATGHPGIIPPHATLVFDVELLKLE

| SMILES | MIC [2] [µg/mL] | MIC [3] [µg/mL] | MIC [4] [µg/mL] | MIC [5] [µg/mL] | MIC [6] [µg/mL] | MIC [7] [µg/mL] | IC50 [8] [µM] | MIC [11] [µg/mL] | IC50 [15] [µM] | MIC [16] | MIC [17] | MIC [18] | MIC [19] [µg/mL] | MIC [20] [µg/mL] | MIC [21] [µg/mL] | further results |
| --- | --- | --- | --- | --- | --- | --- | --- | --- | --- | --- | --- | --- | --- | --- | --- | --- |
| CO[C@H]1C[C@@H]2CC[C@@H](C)[C@@](O)(O2)C(=O)C(=O)N2CCCC[C@H]2C(=O)O[C@H]([C@H](C)C[C@@H]2CC[C@@H](OC(=O)c3ccc([N+](=O)[O-])cc3)[C@H](OC)C2)CC(=O)[C@H](C)/C=C(\C)[C@@H](O)[C@@H](OC)C(=O)[C@H](C)C[C@H](C)CCCC/C=C/1C | > 100 | > 100 | > 100 | > 100 | > 100 | > 100 |  |  |  |  |  |  |  |  |  | MIC [1]: > 100 µg/mL |
| COC(=O)N[C@@H]1C[C@@H]2CC[C@@H](C)[C@@](O)(O2)C(=O)C(=O)N2CCCC[C@H]2C(=O)O[C@H]([C@H](C)C[C@@H]2CC[C@@H](O)[C@H](OC)C2)CC(=O)[C@H](C)/C=C(\C)[C@@H](O)[C@@H](OC)C(=O)[C@H](C)C[C@H](C)/C=C/C=C/C=C/1C | 1.56 (≈ 1.63 µM) |  | 1.56 (≈ 1.63 µM) | 1.56 (≈ 1.63 µM) |  | 0.78 (≈ 0.815 µM) | 1.38 | 0.78 (≈ 0.815 µM) |  |  |  |  |  |  |  | MIC [9]: Weak; MIC [10]: Weak; MIC [12]: Weak; MIC [13]: ~100 µg/mL (≈ 104 µM); MIC [14]: ~100 µg/mL (≈ 104 µM) |
| CO[C@@H]1C[C@H](C[C@@H](C)[C@@H]2CC(=O)[C@H](C)/C=C(\C)[C@@H](O)[C@@H](OC)C(=O)[C@H](C)C[C@H](C)/C=C/C=C/C=C(\C)[C@@H](N(O)C(=O)Oc3ccccc3)C[C@@H]3CC[C@@H](C)[C@@](O)(O3)C(=O)C(=O)N3CCCC[C@H]3C(=O)O2)CC[C@H]1O | 12.5 (≈ 12.1 µM) |  | 25 (≈ 24.1 µM) | 12.5 (≈ 12.1 µM) |  | 1.56 (≈ 1.51 µM) | 1.1 | 1.56 (≈ 1.51 µM) | 0.0021 | Weak | Weak | Weak | ~100 (≈ 96.6 µM) | ~100 (≈ 96.6 µM) |  |  |
| CO[C@H]1C[C@@H]2CC[C@@H](C)[C@@](O)(O2)C(=O)C(=O)N2CCCC[C@H]2C(=O)O[C@H]([C@H](C)C[C@@H]2CCC(O)[C@H](OC)C2)CC(=O)[C@H](C)/C=C(\C)[C@@H](O)[C@@H](OC)C(=O)[C@H](C)C[C@H](C)CCCC/C=C/1C (single isomer, unassigned; 2) | 1.56 (≈ 1.7 µM) | 1.56 (≈ 1.7 µM) | 1.56 (≈ 1.7 µM) | 1.56 (≈ 1.7 µM) | 1.56 (≈ 1.7 µM) | 1.56 (≈ 1.7 µM) | 1.59 |  |  |  |  |  |  |  | 1.56 (≈ 1.7 µM) |  |
| CO[C@@H]1C[C@H](C[C@@H](C)[C@@H]2CC(=O)[C@H](C)/C=C(\C)[C@@H](O)[C@@H](OC)C(=O)[C@H](C)C[C@H](C)/C=C/C=C/C=C(\C)[C@H](N(O)C(=O)N3CCOCC3)C[C@@H]3CC[C@@H](C)[C@@](O)(O3)C(=O)C(=O)N3CCCC[C@H]3C(=O)O2)CC[C@H]1O | 25 (≈ 24.3 µM) |  | 50 (≈ 48.6 µM) | 25 (≈ 24.3 µM) |  | 6.25 (≈ 6.08 µM) | 1.74 | 6.25 (≈ 6.08 µM) |  | Weak | Weak | Weak |  | ~100 (≈ 97.2 µM) |  | MIC [22]: ~100 µg/mL (≈ 97.2 µM) |
| CO[C@H]1C[C@@H]2CC[C@@H](C)[C@@](O)(O2)C(=O)C(=O)N2CCCC[C@H]2C(=O)O[C@H]([C@H](C)C[C@@H]2CC[C@@H](O)[C@H](OC)C2)CC(=O)[C@H](C)/C=C(\C)[C@@H](O)[C@@H](OC)C(=O)[C@H](C)C[C@H](C)/C=C/C=C/C=C/1C [SIROLIMUS] |  | 0.2 (≈ 0.219 µM) | 0.2 (≈ 0.219 µM) | 0.2 (≈ 0.219 µM) | 0.2 (≈ 0.219 µM) | 0.78 (≈ 0.853 µM) | 0.001 | < 0.1 |  | Weak | Weak | Weak | ~100 (≈ 109 µM) |  | 0.2 (≈ 0.219 µM) | MIC [23]: 0.2 µg/mL (≈ 0.219 µM); MIC [24]: ~100 µg/mL (≈ 109 µM) |
| CO[C@H]1C[C@@H]2CC[C@@H](C)[C@@](O)(O2)C(=O)C(=O)N2CCCC[C@H]2C(=O)O[C@H]([C@H](C)C[C@@H]2CC[C@@H](OC(=O)N3CCOCC3)[C@H](OC)C2)CC(=O)[C@H](C)/C=C(\C)[C@@H](O)[C@@H](OC)C(=O)[C@H](C)C[C@H](C)CCCC/C=C/1C | > 100 | > 100 | > 100 | > 100 |  | > 100 |  |  | > 1 |  |  |  |  |  | > 100 |  |
| CO[C@H]1C[C@@H]2CC[C@@H](C)[C@@](O)(O2)C(=O)C(=O)N2CCCC[C@H]2C(=O)O[C@H]([C@H](C)C[C@@H]2CC[C@@H](OC(=O)N(C)OC)[C@H](OC)C2)CC(=O)[C@H](C)/C=C(\C)[C@@H](O)[C@@H](OC)C(=O)[C@H](C)C[C@H](C)CCCC/C=C/1C | > 100 |  | > 100 | 50 (≈ 49.7 µM) |  | > 100 | 2.47 |  | > 1 |  |  |  |  |  |  |  |
| CO[C@@H]1C[C@H](C[C@@H](C)[C@@H]2CC(=O)[C@H](C)/C=C(\C)[C@@H](O)[C@@H](OC)C(=O)[C@H](C)C[C@H](C)/C=C/C=C/C=C(\C)[C@H](O)C[C@@H]3CC[C@@H](C)[C@@](O)(O3)C(=O)C(=O)N3CCCC[C@H]3C(=O)O2)CC[C@H]1O | 1.56 (≈ 1.73 µM) |  | 3.12 (≈ 3.47 µM) | 1.56 (≈ 1.73 µM) |  | 0.78 (≈ 0.867 µM) | 0.0063 | 0.78 (≈ 0.867 µM) | 0.014 | Weak | Weak | Weak | ~100 (≈ 111 µM) | ~100 (≈ 111 µM) |  |  |
| CO[C@@H]1C[C@H](C[C@@H](C)[C@@H]2CC(=O)[C@H](C)/C=C(\C)[C@@H](O)[C@@H](OC)C(=O)[C@H](C)C[C@H](C)/C=C/C=C/C=C(\C)[C@H](N(O)C(C)=O)C[C@@H]3CC[C@@H](C)[C@@](O)(O3)C(=O)C(=O)N3CCCC[C@H]3C(=O)O2)CC[C@H]1O | 6.25 (≈ 6.53 µM) |  | 6.25 (≈ 6.53 µM) | 6.25 (≈ 6.53 µM) |  | 3.12 (≈ 3.26 µM) | 0.095 | 1.56 (≈ 1.63 µM) |  |  |  |  |  |  |  | MIC [9]: Weak; MIC [10]: Weak; MIC [12]: Weak; MIC [13]: ~100 µg/mL (≈ 104 µM); MIC [14]: ~100 µg/mL (≈ 104 µM) |

Reference: ChEMBL document CHEMBL1133206, “Antifungal rapamycin analogues with reduced immunosuppressive activity” (Bioorg Med Chem Lett, 2000)
